The source of these data is ChEMBL document CHEMBL4425121, “Discovery of Substituted 1H-Pyrazolo[3,4-b]pyridine Derivatives as Potent and Selective FGFR Kinase Inhibitors” (ACS Med Chem Lett, 2016).

In data set [1] the target is T1, Vascular endothelial growth factor receptor 2 (Homo sapiens, UniProt P35968). Put plainly: Inhibition of VEGFR2 (unknown origin) overexpressed in mouse NIH/ 3T3 cells incubated for 5 mins followed by stimulation with VEGF for 5 mins by immunoblotting analysis. It is filed as cell-based. For orientation: A western blot detects proteins with antibodies after separation by electrophoresis.

In data set [2] the test system is NCI-H1581. Put plainly: Antiproliferative activity against human NCI-H1581 cells after 72 hrs by CCK-8 assay. In kind it is functional, cell-based. Conditions: NCI-H1581, 72 h.
In data set [3] the target is Fibroblast growth factor receptor 1 (Homo sapiens, UniProt P11362). In words: Inhibition of recombinant human FGFR1 using poly (Glu,Tyr)4:1 as substrate incubated for 60 mins by ELISA. In general terms: ELISA stands for enzyme-linked immunosorbent assay.
Data set [4] can be described thus: Volume of distribution in ICR mouse at 2 mg/kg, iv by LC-MS/MS analysis. It is filed as ADME, organism-based. Conditions: in vivo.
Data set [5] is described as follows: Clearance in ICR mouse at 2 mg/kg, iv by LC-MS/MS analysis. It is filed as ADME, organism-based. Conditions: in vivo.
Data set [6] is described as follows: Half life in ICR mouse at 2 mg/kg, iv by LC-MS/MS analysis. Particulars: in vivo. In kind it is ADME, organism-based.
A short description of data set [7]: Oral bioavailability in ICR mouse at 12.5 mg/kg administered as gavage by LC-MS/MS analysis. It is filed as ADME, organism-based. Conditions: in vivo.
Data set [8] is described as follows: Half life in ICR mouse at 12.5 mg/kg administered as oral gavage by LC-MS/MS analysis. Conditions: in vivo. In kind it is ADME, organism-based.
The nature of data set [9]: Cmax in ICR mouse at 12.5 mg/kg administered as oral gavage by LC-MS/MS analysis. It is filed as ADME, organism-based. Details: dose 12.5 mg/kg, route oral. Particulars: in vivo.
Data set [10] can be described thus: AUC(0 to infinity) in ICR mouse at 2 mg/kg, iv by LC-MS/MS analysis. It is filed as ADME, organism-based. Details: dose 2 mg/kg, time infinity, route intravenous. Conditions: in vivo.
Data set [11] in a line: AUC(0 to infinity) in ICR mouse at 12.5 mg/kg administered as oral gavage by LC-MS/MS analysis. It is filed as ADME, organism-based. Details: dose 12.5 mg/kg, route oral, time infinity. Particulars: in vivo.
A short description of data set [12]: Cmax in ICR mouse at 2 mg/kg, iv by LC-MS/MS analysis. It is filed as ADME, organism-based. Details: dose 2 mg/kg, route intravenous. Conditions: in vivo.
Data set [13] can be described thus: Protein binding in mouse plasma at 5 uM after 4 hrs by equilibrium dialysis assay. It is filed as ADME, cell-free. Conditions: read-out: PPB (converted). A general note: In equilibrium dialysis only unbound substance equilibrates across the membrane.
In data set [14] the target is T1, Vascular endothelial growth factor receptor 2. Put plainly: Inhibition of recombinant human VEGFR2 using poly (Glu,Tyr)4:1 as substrate incubated for 60 mins by ELISA.
The nature of data set [15]: Antiproliferative activity against human KATO III cells after 72 hrs by CCK-8 assay. It is filed as functional, cell-based.
Another data set relates to KG-1. In words: Antiproliferative activity against human KG1 cells after 72 hrs by CCK-8 assay. It is filed as functional, cell-based. Conditions: KG-1, 72 h.
The test system of the next data set is RT-112. In words: Antiproliferative activity against human RT112 cells after 72 hrs by CCK-8 assay. In kind it is functional, cell-based. Conditions: RT-112, 72 h.
Another data set relates to SNU-16. In words: Antiproliferative activity against human SNU16 cells after 72 hrs by CCK-8 assay. It is filed as functional, cell-based. Conditions: SNU-16, 72 h.
The test system of data set [16] is NCI-H1581. In words: Antitumor activity against human NCI-H1581 cells xenografted in nude mouse assessed as tumor growth inhibition at 12.5 mg/kg, po qd administered for 21 days. Particulars: 504 h, read-out: TGI. It is filed as functional.

Chain of Fibroblast growth factor receptor 1 (P11362 whole entry): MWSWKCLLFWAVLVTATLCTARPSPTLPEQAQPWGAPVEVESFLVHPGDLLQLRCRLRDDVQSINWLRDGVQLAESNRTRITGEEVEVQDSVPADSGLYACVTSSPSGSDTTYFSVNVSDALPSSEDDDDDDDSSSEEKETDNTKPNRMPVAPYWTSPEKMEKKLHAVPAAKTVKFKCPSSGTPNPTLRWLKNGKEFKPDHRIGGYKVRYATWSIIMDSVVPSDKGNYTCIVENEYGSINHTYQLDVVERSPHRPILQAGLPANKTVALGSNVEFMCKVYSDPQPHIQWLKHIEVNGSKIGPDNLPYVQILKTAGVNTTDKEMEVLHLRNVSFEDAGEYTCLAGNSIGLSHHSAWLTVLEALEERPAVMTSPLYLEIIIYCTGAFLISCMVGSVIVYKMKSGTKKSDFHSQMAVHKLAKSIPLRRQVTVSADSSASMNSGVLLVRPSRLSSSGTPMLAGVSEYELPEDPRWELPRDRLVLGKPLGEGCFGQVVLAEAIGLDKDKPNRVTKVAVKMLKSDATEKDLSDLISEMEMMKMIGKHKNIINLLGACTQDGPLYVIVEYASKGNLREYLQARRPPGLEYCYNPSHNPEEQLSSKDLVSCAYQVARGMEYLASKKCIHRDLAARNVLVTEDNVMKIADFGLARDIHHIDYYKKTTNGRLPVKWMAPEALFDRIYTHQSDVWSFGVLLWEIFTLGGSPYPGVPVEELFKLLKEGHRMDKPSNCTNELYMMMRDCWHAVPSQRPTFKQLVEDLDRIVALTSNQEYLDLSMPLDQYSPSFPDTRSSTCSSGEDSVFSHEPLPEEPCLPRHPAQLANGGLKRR
T1 sequence (P35968 whole entry): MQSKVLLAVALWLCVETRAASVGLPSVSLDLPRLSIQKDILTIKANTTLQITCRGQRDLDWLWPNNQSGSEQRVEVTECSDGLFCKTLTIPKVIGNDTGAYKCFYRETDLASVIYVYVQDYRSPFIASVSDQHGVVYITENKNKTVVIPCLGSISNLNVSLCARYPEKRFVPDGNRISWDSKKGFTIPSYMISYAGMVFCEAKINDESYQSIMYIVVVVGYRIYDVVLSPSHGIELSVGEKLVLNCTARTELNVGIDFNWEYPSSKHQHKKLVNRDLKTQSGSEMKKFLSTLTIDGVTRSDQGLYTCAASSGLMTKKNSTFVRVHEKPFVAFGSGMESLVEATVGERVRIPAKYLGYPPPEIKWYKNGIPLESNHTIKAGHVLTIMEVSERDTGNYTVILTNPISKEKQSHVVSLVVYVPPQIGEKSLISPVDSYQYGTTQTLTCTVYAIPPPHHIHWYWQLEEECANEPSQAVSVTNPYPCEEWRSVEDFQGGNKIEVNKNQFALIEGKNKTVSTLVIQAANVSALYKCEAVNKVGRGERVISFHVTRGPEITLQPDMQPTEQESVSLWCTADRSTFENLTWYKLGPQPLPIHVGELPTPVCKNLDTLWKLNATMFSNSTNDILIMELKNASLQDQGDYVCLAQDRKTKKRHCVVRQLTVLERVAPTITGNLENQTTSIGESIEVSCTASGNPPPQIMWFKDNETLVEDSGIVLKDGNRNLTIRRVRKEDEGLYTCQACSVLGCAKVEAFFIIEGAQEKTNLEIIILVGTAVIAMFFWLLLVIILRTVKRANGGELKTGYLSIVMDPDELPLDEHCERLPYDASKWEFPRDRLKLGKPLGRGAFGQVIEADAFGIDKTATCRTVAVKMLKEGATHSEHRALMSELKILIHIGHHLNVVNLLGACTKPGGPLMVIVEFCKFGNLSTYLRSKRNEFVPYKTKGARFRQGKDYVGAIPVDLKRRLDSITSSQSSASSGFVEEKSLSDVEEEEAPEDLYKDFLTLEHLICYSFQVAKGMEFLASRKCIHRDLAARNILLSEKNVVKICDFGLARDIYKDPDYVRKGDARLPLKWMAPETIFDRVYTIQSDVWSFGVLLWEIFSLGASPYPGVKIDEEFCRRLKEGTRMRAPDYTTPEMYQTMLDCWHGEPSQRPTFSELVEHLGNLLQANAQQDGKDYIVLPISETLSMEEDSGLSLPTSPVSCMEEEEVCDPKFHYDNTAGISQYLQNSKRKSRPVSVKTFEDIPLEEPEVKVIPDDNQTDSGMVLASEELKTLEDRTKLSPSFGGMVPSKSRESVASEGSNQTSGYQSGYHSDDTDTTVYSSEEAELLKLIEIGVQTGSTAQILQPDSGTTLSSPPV

For `CCN(CC)CCCCNc1ncc2cc(-c3cc(OC)cc(OC)c3)c(NC(=O)NC(C)(C)C)nc2n1` [PD-173074], in [1], the IC50 was in the range of 100 to 200 nM.

As to `COc1cc(OC)c(Cl)c(-c2ccc3c(NC(=O)c4ccc(N5CCN(C6CCC6)CC5)cc4)n[nH]c3n2)c1Cl`, the IC50 in the data set on NCI-H1581 [2] is 2.3 nM; in data set [3] it was 0.2 nM.

In the case of `COc1cc(OC)c(Cl)c(-c2ccc3c(NC(=O)c4ccc(N5CCN(C)CC5)cc4)nn(C)c3n2)c1Cl`, the IC50 in [3] is over 5000 nM.

In turn, `COc1cc(OC)c(Cl)c(-c2ccc3c(NC(=O)c4ccc(N5CCN(CCO)CC5)cc4)n[nH]c3n2)c1Cl` yielded a Vd in data set [4] of 10 L/kg. Also, the IC50 was under 0.5 nM in the data set on NCI-H1581 [2] and 0.3 nM in data set [3]. The clearance in data set [5] is 31 mL/min/kg. Moreover, the results for the half-life in data set [6] and in data set [8] were 3.74 h and 3.38 h, respectively. In data set [7], this molecule gave a bioavailability of 52.3%. The Cmax in [9] turned out to be 802 ng/mL; in [12] it was 796 ng/mL. Also, the AUC(0-inf) in [10] came out at 1080 ng·h/mL; in [11], 3510 ng·h/mL. For the same molecule, the fraction unbound at 4 h, 5 µM in data set [13] was 0.005.

Regarding `COc1cc(OC)c(Cl)c(-c2ccc3c(NC(=O)c4ccc(N5CCN(C(C)=O)CC5)cc4)n[nH]c3n2)c1Cl`, the IC50 in the data set on NCI-H1581 [2] came out at 43.3 nM; in data set [3] it was 0.3 nM.

Turning to `COc1cc(OC)c(Cl)c(-c2ccc3c(NC(=O)c4ccc(N5CCN(C)CC5)cc4)n[nH]c3n2)c1Cl`, the IC50 in the data set on NCI-H1581 [2] is 1.7 nM; in [14], 366 nM; in data set [3], 0.3 nM.

Regarding `COc1cc(OC)c(Cl)c(-c2ccc3c(NC(=O)c4ccc(N5CCN(C)CC5)c(Cl)c4)n[nH]c3n2)c1Cl`, the IC50 with NCI-H1581 [2] is 191 nM; in data set [3] it was 14.5 nM.

Consider `COc1cc(N2CCN(C)CC2)ccc1C(=O)Nc1n[nH]c2nc(-c3c(Cl)c(OC)cc(OC)c3Cl)ccc12`, for which the IC50 with NCI-H1581 [2] was determined as 525 nM; in data set [3], 74.4 nM.

As to `COc1cc(C(=O)Nc2n[nH]c3nc(-c4c(Cl)c(OC)cc(OC)c4Cl)ccc23)ccc1N1CCN(C)CC1`, the IC50 amounted to 15.6 nM in the data set with NCI-H1581 [2] and 14.2 nM in data set [3].

For the molecule `C=CCN1CCN(c2ccc(C(=O)Nc3n[nH]c4nc(-c5c(Cl)c(OC)cc(OC)c5Cl)ccc34)cc2)CC1`, the IC50 with NCI-H1581 [2] came out at 3.3 nM; in data set [3], 0.6 nM.

`COc1cc(OC)c(Cl)c(-c2ccc3c(NC(=O)c4ccc(N5CCCN(C)CC5)cc4)n[nH]c3n2)c1Cl` had a Vd in [4] of 5.43 L/kg. In addition, the IC50 in the data set on NCI-H1581 [2] came to 1.3 nM; in [3], 7.2 nM. The clearance in data set [5] is 18.1 mL/min/kg. Besides, the half-life in data set [6] is 3.47 h; in data set [8], 2.9 h. Also, the bioavailability in data set [7] was 40.2%. For the same molecule, the maximum concentration (Cmax) worked out at 500 ng/mL in [9] and 870 ng/mL in data set [12]. The AUC(0-inf) in data set [10] turned out to be 1840 ng·h/mL; in [11], 4620 ng·h/mL. The fraction unbound at 4 h, 5 µM in [13] was 0.004.

With `COc1cc(OC)c(Cl)c(-c2ccc3c(NC(=O)c4ccc(N5CCN(C(C)C)CC5)cc4)n[nH]c3n2)c1Cl`, the IC50 (in the data set with NCI-H1581 [2]; in data set [3]) was 1.4 nM throughout.

As to `COc1cc(OC)c(Cl)c(-c2ccc3c(NC(=O)c4ccc(C5CCN(C)CC5)cc4)n[nH]c3n2)c1Cl`, the IC50 worked out at 8.2 nM in the data set on NCI-H1581 [2] and 6.9 nM in data set [3].

With `COc1cc(OC)c(Cl)c(-c2ccc3c(NC(=O)c4ccc(N(C)C)cc4)n[nH]c3n2)c1Cl`, the IC50 amounted to 294 nM in the data set with NCI-H1581 [2] and 16.5 nM in data set [3].

`COc1cc(CCc2cc(NC(=O)c3ccc(N4C[C@@H](C)N[C@@H](C)C4)cc3)n[nH]2)cc(OC)c1` [FEXAGRATINIB]: the Vd in [4] amounted to 3.18 L/kg. Moreover, the half-inhibitory concentration (IC50) with NCI-H1581 [2] is 37.9 nM; in [15], 20.2 nM; with KG-1, under 0.2 nM; with RT-112 it was 0.6 nM; in the data set on SNU-16 it was 1.2 nM. The molecule also showed a clearance in data set [5] of 16.1 mL/min/kg. Further, the results for the half-life in [6] and in data set [8] were 2.29 h and 2.55 h, respectively. In data set [7], this molecule returned a bioavailability of 74.7%. In addition, the Cmax stood at 1350 ng/mL in data set [9] and 1880 ng/mL in data set [12]. Further, the total exposure AUC(0-inf) in data set [10] came out at 2080 ng·h/mL; in [11], 9130 ng·h/mL. Further, the inhibition in vivo at 12.5 mg/kg with NCI-H1581 [16] amounted to 77.1%. In addition, the fraction unbound at 4 h, 5 µM in data set [13] is 0.007.

As usually defined, the IC50 is the concentration at which inhibition is half-maximal. As usually defined, the Vd is the apparent volume that relates the amount in the body to the concentration in plasma or blood. A low value points to confinement near the circulation. The term clearance denotes a measure of how efficiently the substance is removed, as volume per time. Low readings indicate inefficient removal, high ones efficient removal. One may read the half-life as how long it takes for the measured level to halve. Low readings indicate fast loss, high ones slow loss. What is called bioavailability is dose-corrected exposure relative to a reference, in per cent. The low end stands for little systemic uptake, the high end for much systemic uptake. As usually defined, the Cmax is the highest concentration seen after dosing. In general, AUC(0-inf) refers to the area under the concentration-time curve extrapolated to infinity. High values mean more exposure, low ones less exposure.
